Common to all, as to format: biochemical
Assay [1] has as its target human JAK1 (a.a. 837-1142) (Homo sapiens, UniProt P23458). The assay can be described thus: In vitro JAK kinase assay (HTRF, phosphorylation of a biotinylated peptide), JAK1. Particulars: measured at 1 mM ATP. A digest of the protocol: (§1)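 N-terminal His-tagged catalytic domains, baculovirus-expressed in insect cells, phosphorylated a biotinylated peptide for 1 hr at room temperature. EDTA stop was followed by SA-APC and Eu-Py20 antibody for 40 minutes, with phosphopeptide read by HTRF.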
A general note: TR-FRET usually uses a lanthanide donor and a delayed reading to cut background.

Assay [2] deals with human JAK1 (a.a. 837-1142). The description is as above. As to conditions: ratio of JAK2 IC50 to JAK1 IC50, measured at 1 mM ATP. Summed up: as §1
The next assay addresses Jak2 (a.a. 828-1132) (Homo sapiens (Human), UniProt O60674). The experiment in a line: In vitro JAK kinase assay (HTRF, phosphorylation of a biotinylated peptide), JAK2. As to conditions: measured at 1 mM ATP. A digest of the protocol: as §1

Broadly, the IC50 is the concentration that inhibits the measured activity by half. Low values mean greater potency, high ones weaker potency.

Structures are written as SMILES.

Jak2 (a.a. 828-1132), sequence (O60674 828-1132): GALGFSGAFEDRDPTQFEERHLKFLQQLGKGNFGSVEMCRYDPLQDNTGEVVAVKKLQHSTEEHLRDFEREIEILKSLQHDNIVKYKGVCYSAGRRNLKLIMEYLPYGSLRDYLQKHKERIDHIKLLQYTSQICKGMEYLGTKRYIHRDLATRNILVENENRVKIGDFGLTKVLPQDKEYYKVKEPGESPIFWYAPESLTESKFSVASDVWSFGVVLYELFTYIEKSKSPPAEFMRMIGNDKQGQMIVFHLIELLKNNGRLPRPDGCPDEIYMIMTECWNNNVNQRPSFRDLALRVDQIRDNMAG

Take `N#CCC1(n2cc(-c3ncnc4[nH]ccc34)cn2)CN(C2CCN(Cc3cc(F)cc(F)c3)CC2)C1` [Example 215, {1-[1-(3,5-difluorobenzyl)piperidin-4-yl]-3-[4-(7H-pyrrolo[2,3-d]pyrimidin-4-yl)-1H-pyrazol-1-yl]azetidin-3-yl}acetonitrile]: the half-maximal inhibitory concentration (IC50) in assay [1] was no more than 5 nM; against Jak2 (a.a. 828-1132), 10 to 50 nM. Moreover, the “IC50 Ratio JAK2/JAK1” value in assay [2] stood at 5.7.
On the same counts, the results for `COc1cccc(F)c1CN1CCC(N2CC(CC#N)(n3cc(-c4ncnc5[nH]ccc45)cn3)C2)CC1` [Example 218, {1-[1-(2-fluoro-6-methoxybenzyl)piperidin-4-yl]-3-[4-(7H-pyrrolo[2,3-d]pyrimidin-4-yl)-1H-pyrazol-1-yl]azetidin-3-yl}acetonitrile] are 20 to 30 nM, 50 to 100 nM and 2.6.
On the same counts, the results for `N#CCC1(n2cc(-c3ncnc4[nH]ccc34)cn2)CN(C2CCN(Cc3cccc(Cl)c3Cl)CC2)C1` [Example 219, {1-[1-(2,3-dichlorobenzyl)piperidin-4-yl]-3-[4-(7H-pyrrolo[2,3-d]pyrimidin-4-yl)-1H-pyrazol-1-yl]azetidin-3-yl}acetonitrile] are 5 to 20 nM, 10 to 50 nM and 2.4.
On the same counts, the results for `N#CCC1(n2cc(-c3ncnc4[nH]ccc34)cn2)CN(C2CCN(Cc3ccc(F)c(C#N)c3)CC2)C1` [Example 220, 5-[(4-{3-(cyanomethyl)-3-[4-(7H-pyrrolo[2,3-d]pyrimidin-4-yl)-1H-pyrazol-1-yl]azetidin-1-yl}piperidin-1-yl)methyl]-2-fluorobenzonitrile] are 5 to 20 nM, 50 to 100 nM and 4.4.
Regarding `N#CCC1(n2cc(-c3ncnc4[nH]ccc34)cn2)CN(C2CCN(Cc3ccc(-c4conn4)cc3)CC2)C1` [Example 221, {1-{1-[4-(1,2,3-oxadiazol-4-yl)benzyl]piperidin-4-yl}-3-[4-(7H-pyrrolo[2,3-d]pyrimidin-4-yl)-1H-pyrazol-1-yl]azetidin-3-yl}acetonitrile], the results for the half-maximal inhibitory concentration (IC50) (in assay [1]; on Jak2 (a.a. 828-1132)) were 5 to 20 nM and 10 to 50 nM, respectively. In assay [2], the “IC50 Ratio JAK2/JAK1” value was 1.3.
On the same counts, the results for `N#CCC1(n2cc(-c3ncnc4[nH]ccc34)cn2)CN(C2CCN(Cc3cccc(C#N)c3)CC2)C1` [Example 223, 3-[(4-{3-(cyanomethyl)-3-[4-(7H-pyrrolo[2,3-d]pyrimidin-4-yl)-1H-pyrazol-1-yl]azetidin-1-yl}piperidin-1-yl)methyl]benzonitrile] are 5 to 20 nM, 10 to 50 nM and 5.9.
On the same counts, the results for `COc1nc(CN2CCC(N3CC(CC#N)(n4cc(-c5ncnc6[nH]ccc56)cn4)C3)CC2)ccc1C#N` [Example 224, 6-[(4-{3-(cyanomethyl)-3-[4-(7H-pyrrolo[2,3-d]pyrimidin-4-yl)-1H-pyrazol-1-yl]azetidin-1-yl}piperidin-1-yl)methyl]-2-methoxynicotinonitrile] are 20 to 30 nM, 50 to 100 nM and 2.4.
On the same counts, the results for `N#CCC1(n2cc(-c3ncnc4[nH]ccc34)cn2)CN(C2CCN(Cc3cc(Br)nc(Br)c3)CC2)C1` [Example 225, {1-{1-[(2,6-dibromopyridin-4-yl)methyl]piperidin-4-yl}-3-[4-(7H-pyrrolo[2,3-d]pyrimidin-4-yl)-1H-pyrazol-1-yl]azetidin-3-yl}acetonitrile] are no more than 5 nM, 10 to 50 nM and 3.8.
Consider `N#CCC1(n2cc(-c3ncnc4[nH]ccc34)cn2)CN(C2CCN(Cc3ccnc(Br)c3)CC2)C1` [Example 226, {1-{1-[(2-bromopyridin-4-yl)methyl]piperidin-4-yl}-3-[4-(7H-pyrrolo[2,3-d]pyrimidin-4-yl)-1H-pyrazol-1-yl]azetidin-3-yl}acetonitrile], for which the IC50 in assay [1] is 5 to 20 nM; on Jak2 (a.a. 828-1132), 10 to 50 nM. Further, in assay [2], the “IC50 Ratio JAK2/JAK1” value amounted to 1.9.
`N#CCC1(n2cc(-c3ncnc4[nH]ccc34)cn2)CN(C2CCN(Cc3c(F)cccc3Cl)CC2)C1` [Example 227, {1-[1-(2-chloro-6-fluorobenzyl)piperidin-4-yl]-3-[4-(7H-pyrrolo[2,3-d]pyrimidin-4-yl)-1H-pyrazol-1-yl]azetidin-3-yl}acetonitrile]: the IC50 was no more than 5 nM in assay [1] and no more than 10 nM against Jak2 (a.a. 828-1132). Further, the “IC50 Ratio JAK2/JAK1” value in assay [2] was 7.9.
On the same counts, the results for `N#CCC1(n2cc(-c3ncnc4[nH]ccc34)cn2)CN(C2CCN(Cc3c(F)ccc(Cl)c3F)CC2)C1` [Example 228, {1-[1-(3-chloro-2,6-difluorobenzyl)piperidin-4-yl]-3-[4-(7H-pyrrolo[2,3-d]pyrimidin-4-yl)-1H-pyrazol-1-yl]azetidin-3-yl}acetonitrile] are no more than 5 nM, no more than 10 nM and 3.9.
On the same counts, the results for `N#CCC1(n2cc(-c3ncnc4[nH]ccc34)cn2)CN(C2CCN(Cc3ccc(C#N)c(F)c3)CC2)C1` [Example 229, 4-[(4-{3-(cyanomethyl)-3-[4-(7H-pyrrolo[2,3-d]pyrimidin-4-yl)-1H-pyrazol-1-yl]azetidin-1-yl}piperidin-1-yl)methyl]-2-fluorobenzonitrile] are 5 to 20 nM, 50 to 100 nM and 6.4.
On the same counts, the results for `Cc1onc(-c2ccccc2)c1CN1CCC(N2CC(CC#N)(n3cc(-c4ncnc5[nH]ccc45)cn3)C2)CC1` [Example 230, {1-{1-[(5-methyl-3-phenylisoxazol-4-yl)methyl]piperidin-4-yl}-3-[4-(7H-pyrrolo[2,3-d]pyrimidin-4-yl)-1H-pyrazol-1-yl]azetidin-3-yl}acetonitrile] are 5 to 20 nM, greater than 100 nM and 9.3.
For the compound `N#CCC1(n2cc(-c3ncnc4[nH]ccc34)cn2)CN(C2CCN(Cc3ccnc(C(F)(F)F)c3F)CC2)C1` [Example 231, {1-(1-{[3-fluoro-2-(trifluoromethyl)pyridin-4-yl]methyl}piperidin-4-yl)-3-[4-(7H-pyrrolo[2,3-d]pyrimidin-4-yl)-1H-pyrazol-1-yl]azetidin-3-yl}acetonitrile], the IC50 in assay [1] lay within 5 to 20 nM; against Jak2 (a.a. 828-1132) it was 50 to 100 nM. Further, the “IC50 Ratio JAK2/JAK1” value in assay [2] came out at 5.1.
On the same counts, the results for `N#CCC1(n2cc(-c3ncnc4[nH]ccc34)cn2)CN(C2CCN(Cc3cc4ccccc4o3)CC2)C1` [Example 232, {1-[1-(1-benzofuran-2-ylmethyl)piperidin-4-yl]-3-[4-(7H-pyrrolo[2,3-d]pyrimidin-4-yl)-1H-pyrazol-1-yl]azetidin-3-yl}acetonitrile] are 5 to 20 nM, no more than 10 nM and 0.7.
Turning to `N#CCC1(n2cc(-c3ncnc4[nH]ccc34)cn2)CN(C2CCN(Cc3cccc(Oc4ccccc4)c3)CC2)C1` [Example 233, {1-[1-(3-phenoxybenzyl)piperidin-4-yl]-3-[4-(7H-pyrrolo[2,3-d]pyrimidin-4-yl)-1H-pyrazol-1-yl]azetidin-3-yl}acetonitrile], the IC50 in assay [1] was in the range of 20 to 30 nM; at Jak2 (a.a. 828-1132), 50 to 100 nM. In addition, the “IC50 Ratio JAK2/JAK1” value in assay [2] is 2.2.
On the same counts, the results for `N#CCC1(n2cc(-c3ncnc4[nH]ccc34)cn2)CN(C2CCN(Cc3ccc4c(c3)OCCO4)CC2)C1` [Example 234, {1-[1-(2,3-dihydro-1,4-benzodioxin-6-ylmethyl)piperidin-4-yl]-3-[4-(7H-pyrrolo[2,3-d]pyrimidin-4-yl)-1H-pyrazol-1-yl]azetidin-3-yl}acetonitrile] are no more than 5 nM, 10 to 50 nM and 4.2.
As to `CC(C)(C)C(=O)Nc1ncccc1CN1CCC(N2CC(CC#N)(n3cc(-c4ncnc5[nH]ccc45)cn3)C2)CC1` [Example 235], the IC50 in assay [1] was 5 to 20 nM; at Jak2 (a.a. 828-1132), 10 to 50 nM. Besides, the “IC50 Ratio JAK2/JAK1” value in assay [2] was 2.5.
On the same counts, the results for `N#CCC1(n2cc(-c3ncnc4[nH]ccc34)cn2)CN(C2CCN(Cc3c(C(F)(F)F)ccc(Cl)c3F)CC2)C1` [Example 236, {1-{1-[3-chloro-2-fluoro-6-(trifluoromethyl)benzyl]piperidin-4-yl}-3-[4-(7H-pyrrolo[2,3-d]pyrimidin-4-yl)-1H-pyrazol-1-yl]azetidin-3-yl}acetonitrile] are no more than 5 nM, no more than 10 nM and 5.5.
Turning to `N#CCC1(n2cc(-c3ncnc4[nH]ccc34)cn2)CN(C2CCN(Cc3c(Cl)cncc3Cl)CC2)C1` [Example 237, {1-{1-[(3,5-dichloropyridin-4-yl)methyl]piperidin-4-yl}-3-[4-(7H-pyrrolo[2,3-d]pyrimidin-4-yl)-1H-pyrazol-1-yl]azetidin-3-yl}acetonitrile], the values for the half-maximal inhibitory concentration (IC50) (in assay [1]; against Jak2 (a.a. 828-1132)) were 5 to 20 nM and 10 to 50 nM, respectively. In addition, the “IC50 Ratio JAK2/JAK1” value in assay [2] was 2.3.
On the same counts, the results for `COc1ccc2nc(Cl)c(CN3CCC(N4CC(CC#N)(n5cc(-c6ncnc7[nH]ccc67)cn5)C4)CC3)cc2c1` [Example 238, {1-{1-[(2-chloro-6-methoxyquinolin-3-yl)methyl]piperidin-4-yl}-3-[4-(7H-pyrrolo[2,3-d]pyrimidin-4-yl)-1H-pyrazol-1-yl]azetidin-3-yl}acetonitrile] are no more than 5 nM, 10 to 50 nM and 6.8.
On the same counts, the results for `COc1ccc(CN2CCC(N3CC(CC#N)(n4cc(-c5ncnc6[nH]ccc56)cn4)C3)CC2)c(Cl)c1OC` [Example 239, {1-[1-(2-chloro-3,4-dimethoxybenzyl)piperidin-4-yl]-3-[4-(7H-pyrrolo[2,3-d]pyrimidin-4-yl)-1H-pyrazol-1-yl]azetidin-3-yl}acetonitrile] are 5 to 20 nM, 10 to 50 nM and 2.3.

These data come from patent publication US9999619B2, “Piperidin-4-yl azetidine derivatives as JAK1 inhibitors” (Incyte Corporation, priority 2010, dated 2018).
